Measurements as given in US20150133297A1, “NEW ANTIFUNGAL COMPOSITIONS” (DSM IP ASSETS B.V., priority 2012, published 2015).

Test system: Botrytis cinerea
Assay: Treatment of sweet peppers (Example 10)
Format: in vivo
Conditions: 20° C., 150 ppm spiroxamine or both
Protocol: Ten fresh, organic sweet peppers were used per treatment. Each sweet pepper was soaked in a 180 ppm hypochlorite solution for 10 minutes, then rinsed thoroughly with fresh tap water and dried. The peel of each disinfected sweet pepper was wounded once using a cork borer according to the method described by de Lapeyre de Bellaire and Dubois (1987). Subsequently, each wound was inoculated with 10 μl of a Botrytis cinerea suspension containing 1×10^5 of spores/ml. After incubation for 3 hours at 20° C., each wound and the skin area of 0.5 cm around the wound was treated with in total 75 μl of a freshly prepared aqueous antifungal composition comprising either 200 ppm natamycin (DSM Food Specialties, Delft, The Netherlands), 150 ppm spiroxamine or both. […]
The treated sweet peppers were incubated in a closed box in the dark at 20° C. and assessed on mould growth during incubation. The antifungal activity (in %) of the individual and combined active ingredients was determined by calculating the reduction in mould growth observed on the sweet peppers treated with the antifungal composition in comparison to the mould growth on the sweet peppers treated with the control composition according to the Colby method (Colby, 1967) as described in Example 5.

CCCN(CC)CC1COC2(CCC(C(C)(C)C)CC2)O1 (centres unmarked) [Spiroxamine, spiroxamine]
Observed antifungal activity O (%) (day 12, 200 ppm natamycin): 0%
Observed antifungal activity O (%) (day 13, 200 ppm natamycin): 0%
